Experiment [1] deals with T1, serotonine transporter (SERT) receptor (Homo sapiens, UniProt P31645).
T1 construct: expressed in transfected cells; host or cells: CHO cells
Put plainly: Binding assay SERT (h), [3H]imipramine, CHO cells. As to conditions: read-out: SERT [%]. Here is the method:
(§1) The specific ligand binding to the receptors is defined as the difference between the total binding and the nonspecific binding determined in the presence of an excess of so unlabelled ligand.
(§2) The specific Ligand binding to the receptor is defined as the difference between total and non-specific binding determined in the presence of an excess of unlabelled ligand. The compounds were tested at a concentration of 1×10^−6 M, and scintillation counting was the method of detection of ligand binding.

The target of the next experiment is dopaminergic D3 receptor (Homo sapiens, UniProt P35462). The experiment is described as follows: Binding assay D3 (h), [3H]methyl-spiperone, CHO cells. The arrangement: expressed in transfected cells; host or cells: CHO cells. Particulars: read-out: D3 [%]. Here is the method:
as §1, §2

Experiment [2] concerns the target serotoninergic 5-HT6 receptor (Homo sapiens, UniProt P50406). The experiment is described as follows: Binding assay 5-HT6 (h), [3H]LSD, CHO cells. Set-up: expressed in transfected cells; host or cells: CHO cells. As to conditions: read-out: 5-HT6. Here is the method: as §1, §2
The target in experiment [3] is serotoninergic 5-HT7 receptor (Homo sapiens, UniProt P34969). Put plainly: Binding assay 5-HT7 (h), [3H]LSD, CHO cells. Set-up: expressed in transfected cells; host or cells: CHO cells. As to conditions: read-out: 5-HT7. The protocol: as §1, §2
Chain of serotoninergic 5-HT7 receptor (P34969 whole entry): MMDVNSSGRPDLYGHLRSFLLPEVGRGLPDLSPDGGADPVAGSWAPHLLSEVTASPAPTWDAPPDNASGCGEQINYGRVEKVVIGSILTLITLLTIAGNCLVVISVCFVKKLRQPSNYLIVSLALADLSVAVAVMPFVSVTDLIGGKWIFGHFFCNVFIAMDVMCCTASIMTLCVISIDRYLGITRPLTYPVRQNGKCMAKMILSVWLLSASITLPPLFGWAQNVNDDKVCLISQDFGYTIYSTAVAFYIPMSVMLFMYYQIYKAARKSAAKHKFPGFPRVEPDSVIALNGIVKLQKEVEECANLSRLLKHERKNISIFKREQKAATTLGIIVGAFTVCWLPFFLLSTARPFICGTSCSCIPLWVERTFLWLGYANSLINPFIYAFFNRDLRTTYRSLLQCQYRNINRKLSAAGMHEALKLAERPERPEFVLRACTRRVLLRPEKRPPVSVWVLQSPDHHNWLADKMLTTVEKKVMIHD
The target of the next experiment is dopaminergic D2 receptor (Homo sapiens, UniProt P14416). The experiment is described as follows: Binding assay D2S (h), [3H]methyl-spiperone, HEK-293 cells. Particulars: read-out: D2 [%]. The arrangement: expressed in transfected cells; host or cells: HEK-293 cells. The protocol: as §1, §2
Chain of dopaminergic D2 receptor (P14416 1-414 isoform P14416-2): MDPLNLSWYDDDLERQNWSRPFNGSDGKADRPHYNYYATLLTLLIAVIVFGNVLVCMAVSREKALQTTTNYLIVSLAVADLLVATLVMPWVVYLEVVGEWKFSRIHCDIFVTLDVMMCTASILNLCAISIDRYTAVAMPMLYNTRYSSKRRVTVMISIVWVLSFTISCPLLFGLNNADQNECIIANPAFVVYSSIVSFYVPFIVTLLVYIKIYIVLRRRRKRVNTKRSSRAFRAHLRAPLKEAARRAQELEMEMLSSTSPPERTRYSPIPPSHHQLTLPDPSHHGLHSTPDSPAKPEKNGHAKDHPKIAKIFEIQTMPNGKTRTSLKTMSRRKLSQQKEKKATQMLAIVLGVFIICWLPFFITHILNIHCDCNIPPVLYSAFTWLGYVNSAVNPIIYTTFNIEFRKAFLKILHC
Experiment [4] has as its target T2, serotoninergic 5-HT1A receptor (Homo sapiens, UniProt P08908).
T2 sequence (P08908 1-422): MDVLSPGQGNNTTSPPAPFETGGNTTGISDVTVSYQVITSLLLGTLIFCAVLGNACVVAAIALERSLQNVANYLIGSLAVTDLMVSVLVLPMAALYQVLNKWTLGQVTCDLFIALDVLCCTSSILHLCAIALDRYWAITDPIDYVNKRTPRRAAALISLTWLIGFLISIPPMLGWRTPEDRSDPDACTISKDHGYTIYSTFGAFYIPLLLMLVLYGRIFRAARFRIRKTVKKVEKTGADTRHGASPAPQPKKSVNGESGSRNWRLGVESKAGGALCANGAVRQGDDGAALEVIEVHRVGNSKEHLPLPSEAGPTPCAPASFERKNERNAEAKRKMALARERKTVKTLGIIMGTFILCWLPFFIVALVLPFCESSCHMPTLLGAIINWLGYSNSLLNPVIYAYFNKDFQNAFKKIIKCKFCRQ
Put plainly: Binding assay 5-HT1A (h), [3H]8-OH-DPAT, HEK-293 cells. The arrangement: expressed in transfected cells; host or cells: HEK-293 cells. As to conditions: read-out: 5-HT1A. The protocol:
as §1, §2

For experiment [5], the target named is serotoninergic 5-HT2A receptor (Homo sapiens, UniProt P28223). The experiment is described as follows: Binding assay 5-HT2A (h), [3H]ketanserin, HEK-293 cells. The arrangement: expressed in transfected cells; host or cells: HEK-293 cells. As to conditions: read-out: 5-HT2A. The protocol:
as §1, §2

The test system of another experiment is adrenergic α1 receptor. The experiment is described as follows: Binding assay α1 (non-selective), [3H]prazosin, rat cerebral cortex. As to conditions: percent inhibition of control specific binding; compounds tested at 1×10^−6 M. The protocol: as §1, §2

Chain of serotoninergic 5-HT2A receptor (P28223 whole entry): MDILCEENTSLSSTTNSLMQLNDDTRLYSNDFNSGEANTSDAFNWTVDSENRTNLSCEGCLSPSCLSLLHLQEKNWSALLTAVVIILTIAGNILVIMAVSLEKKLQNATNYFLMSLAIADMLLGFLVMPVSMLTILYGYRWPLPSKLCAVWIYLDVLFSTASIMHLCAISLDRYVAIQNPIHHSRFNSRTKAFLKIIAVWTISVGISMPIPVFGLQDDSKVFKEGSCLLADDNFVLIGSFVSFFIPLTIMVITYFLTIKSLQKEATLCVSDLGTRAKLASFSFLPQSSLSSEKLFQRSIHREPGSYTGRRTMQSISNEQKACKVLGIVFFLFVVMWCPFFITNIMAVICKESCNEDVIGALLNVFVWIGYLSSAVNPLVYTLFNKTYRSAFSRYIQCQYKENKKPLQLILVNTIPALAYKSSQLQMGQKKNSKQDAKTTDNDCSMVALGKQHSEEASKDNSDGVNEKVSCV
T1 sequence (P31645 whole entry): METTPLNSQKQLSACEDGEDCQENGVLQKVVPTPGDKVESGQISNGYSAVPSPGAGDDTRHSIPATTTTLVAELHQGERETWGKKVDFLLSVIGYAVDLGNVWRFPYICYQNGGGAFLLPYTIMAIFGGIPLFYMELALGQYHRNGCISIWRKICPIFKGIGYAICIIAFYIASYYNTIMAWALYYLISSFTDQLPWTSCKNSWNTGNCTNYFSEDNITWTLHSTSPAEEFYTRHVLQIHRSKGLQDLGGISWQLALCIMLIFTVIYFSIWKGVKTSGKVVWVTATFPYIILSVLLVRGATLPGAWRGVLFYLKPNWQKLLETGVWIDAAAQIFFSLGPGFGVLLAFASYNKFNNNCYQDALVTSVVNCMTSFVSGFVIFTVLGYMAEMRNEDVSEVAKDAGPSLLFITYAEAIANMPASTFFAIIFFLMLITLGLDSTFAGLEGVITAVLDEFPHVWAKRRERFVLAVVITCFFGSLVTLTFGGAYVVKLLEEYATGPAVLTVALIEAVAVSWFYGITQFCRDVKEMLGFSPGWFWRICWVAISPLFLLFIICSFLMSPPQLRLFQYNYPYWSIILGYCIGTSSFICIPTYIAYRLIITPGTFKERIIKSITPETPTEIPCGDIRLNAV
Chain of dopaminergic D3 receptor (P35462 whole entry): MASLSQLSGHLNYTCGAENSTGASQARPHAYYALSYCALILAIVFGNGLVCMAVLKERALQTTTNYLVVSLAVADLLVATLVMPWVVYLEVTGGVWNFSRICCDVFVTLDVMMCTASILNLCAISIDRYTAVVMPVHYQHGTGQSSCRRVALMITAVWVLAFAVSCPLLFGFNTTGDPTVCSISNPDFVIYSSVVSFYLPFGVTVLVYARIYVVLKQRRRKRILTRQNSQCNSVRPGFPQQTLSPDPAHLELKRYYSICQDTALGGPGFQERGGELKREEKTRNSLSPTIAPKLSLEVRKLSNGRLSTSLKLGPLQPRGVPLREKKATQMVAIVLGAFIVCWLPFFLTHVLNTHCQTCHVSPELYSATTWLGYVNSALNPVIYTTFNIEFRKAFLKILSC
Chain of serotoninergic 5-HT6 receptor (P50406 whole entry): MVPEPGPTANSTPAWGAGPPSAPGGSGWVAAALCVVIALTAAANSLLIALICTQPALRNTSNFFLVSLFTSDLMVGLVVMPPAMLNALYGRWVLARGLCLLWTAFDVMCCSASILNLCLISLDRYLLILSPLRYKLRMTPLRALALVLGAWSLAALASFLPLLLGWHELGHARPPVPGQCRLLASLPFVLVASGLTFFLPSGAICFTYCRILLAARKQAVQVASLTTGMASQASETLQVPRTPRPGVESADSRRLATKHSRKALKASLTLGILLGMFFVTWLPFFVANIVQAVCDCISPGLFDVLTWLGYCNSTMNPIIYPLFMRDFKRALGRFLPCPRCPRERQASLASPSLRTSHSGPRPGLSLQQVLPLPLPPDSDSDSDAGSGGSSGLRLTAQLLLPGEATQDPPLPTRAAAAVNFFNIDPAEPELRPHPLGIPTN

On to `O=S(=O)(NCCCN1CCC(c2noc3cc(F)ccc23)CC1)c1cccc(Cl)c1` [Compound 106, 3-Chloro-N-[3-[4-(6-fluoro-1,2-benzoxazol-3-yl)piperidin-1-yl]propyl]benzenesulphonamide], for which the inhibition at 1 µM worked out at 2% in experiment [1]; 97% on dopaminergic D3 receptor; 93% in experiment [2]; 91% in experiment [3]; 108% on dopaminergic D2 receptor; 63% in experiment [4]. The inhibition at 1 µM in experiment [5] stood at 97%.

For `O=S(=O)(NCCCN1CCC(c2noc3cc(F)ccc23)CC1)c1cccc(Br)c1` [Compound 110, 3-Bromo-N-[3-[4-(6-fluoro-1,2-benzoxazol-3-yl)piperidin-1-yl]propyl]benzenesulphonamide], the inhibition at 1 µM was determined as 8% in experiment [1]; 97% at dopaminergic D3 receptor; 96% in experiment [2]; 91% in experiment [3]; 109% on dopaminergic D2 receptor; 55% in experiment [4]. In experiment [5], the inhibition at 1 µM was found to be 99%.

Take `O=c1[nH]c2cccc(N3CCN(CCCCNS(=O)(=O)c4cccc(Cl)c4)CC3)c2[nH]1` [Compound 173, 3-Chloro-N-[4-[4-(2-oxo-1,3-dihydrobenzimidazol-4-yl)piperazin-1-yl]butyl]benzenesulphonamide]: the “α1 [%]” value in the experiment with adrenergic α1 receptor was found to be 89%. Moreover, the inhibition at 1 µM on dopaminergic D3 receptor came to 98%.

For `O=c1[nH]c2cccc(N3CCN(CCCCNS(=O)(=O)c4cccc(F)c4)CC3)c2[nH]1` [Compound 175, 3-Fluoro-N-[4-[4-(2-oxo-1,3-dihydrobenzimidazol-4-yl)piperazin-1-yl]butyl]benzenesulphonamide], in the experiment on adrenergic α1 receptor, the “α1 [%]” value was 82%. For the same compound, the inhibition at 1 µM on dopaminergic D3 receptor turned out to be 87%.

`O=S(=O)(NCCCN1CCN(c2nsc3ccccc23)CC1)c1ccc(Cl)cc1` [Compound 250, N-[3-[4-(1,2-Benzothiazol-3-yl)piperazin-1-yl]propyl]-4-chlorobenzenesulphonamide]: the inhibition at 1 µM in experiment [1] stood at 23%; on dopaminergic D3 receptor, 85%; in experiment [2], 73%; in experiment [3], 88%; at dopaminergic D2 receptor, 97%; in experiment [4], 98%. Besides, the inhibition at 1 µM in experiment [5] came out at 92%.

Turning to `O=S(=O)(NCCCN1CCC(c2noc3cc(F)ccc23)CC1)c1ccc(Cl)cc1` [Compound 328, 4-Chloro-N-[3-[4-(6-fluoro-1,2-benzoxazol-3-yl)piperidin-1-yl]propyl]benzenesulphonamide], the inhibition at 1 µM in experiment [1] was 7%; at dopaminergic D3 receptor, 99%; in experiment [2], 87%; in experiment [3], 92%; on dopaminergic D2 receptor, 108%; in experiment [4], 58%. Also, the inhibition at 1 µM in experiment [5] turned out to be 90%.

Consider `O=S(=O)(NCCCN1CCC(c2noc3cc(F)ccc23)CC1)c1ccc(Br)cc1` [Compound 330, 4-Bromo-N-[3-[4-(6-fluoro-1,2-benzoxazol-3-yl)piperidin-1-yl]propyl]benzenesulphonamide], for which the inhibition at 1 µM in experiment [1] was -2%; at dopaminergic D3 receptor it was 99%; in experiment [2], 83%; in experiment [3], 90%; on dopaminergic D2 receptor, 108%; in experiment [4], 67%. In experiment [5], the inhibition at 1 µM was determined as 93%.

As to `O=S(=O)(NCCCN1CCC(c2noc3cc(F)ccc23)CC1)c1ccc(Cl)s1` [Compound 341, 5-Chloro-N-[3-[4-(6-fluoro-1,2-benzoxazol-3-yl)piperidin-1-yl]propyl]thiophene-2-sulphonamide], the inhibition at 1 µM in experiment [1] is 8%; at dopaminergic D3 receptor it was 98%; in experiment [2] it was 93%; in experiment [3], 78%; on dopaminergic D2 receptor, 98%; in experiment [4] it was 74%. For the same compound, in experiment [5], the inhibition at 1 µM worked out at 102%.

Consider `Cc1c(S(=O)(=O)NCCCN2CCC(c3noc4cc(F)ccc34)CC2)sc2ccc(Cl)cc12` [Compound 348, 5-Chloro-N-[3-[4-(6-fluoro-1,2-benzoxazol-3-yl)piperidin-1-yl]propyl]-3-methylbenzothiophene-2-sulphonamide], for which the inhibition at 1 µM in experiment [1] amounted to 6%; at dopaminergic D3 receptor, 102%; in experiment [2] it was 96%; in experiment [3], 87%; on dopaminergic D2 receptor, 104%; in experiment [4], 36%. Also, the inhibition at 1 µM in experiment [5] turned out to be 107%.

Turning to `Cc1[nH]c2ccc(Cl)cc2c1C1=CCN(CCCCNS(=O)(=O)c2ccc(F)cc2)CC1` [Compound 368, N-[4-[4-(5-Chloro-2-methyl-1H-indol-3-yl)-3,6-dihydro-2H-pyridin-1-yl]butyl]-4-fluorobenzenesulphonamide], the inhibition at 1 µM was 14% in experiment [1]; 94% at dopaminergic D3 receptor; 96% in experiment [2]; 42% in experiment [3]; 41% at dopaminergic D2 receptor; -7% in experiment [4]. Further, in experiment [5], the inhibition at 1 µM amounted to 64%.

As to `O=S(=O)(NCCCCN1CCN(c2cccc3c2OCCO3)CC1)c1cccs1` [Compound 397, N-[4-[4-(2,3-Dihydro-1,4-benzodioxin-8-yl)piperazin-1-yl]butyl]thiophene-2-sulphonamide], in the experiment with adrenergic α1 receptor, the “α1 [%]” value was determined as 92%. For the same compound, the inhibition at 1 µM in experiment [4] was found to be 95%; in experiment [5], 13%.

Regarding `O=S(=O)(NCCCN1CCN(c2cccc3c2OCCO3)CC1)c1ccc(F)c(F)c1` [Compound 410, N-[3-[4-(2,3-Dihydro-1,4-benzodioxin-5-yl)piperazin-1-yl]propyl]-3,4-difluorobenzenesulphonamide], the “α1 [%]” value in the experiment with adrenergic α1 receptor is given as 84%. Further, the inhibition at 1 µM in experiment [4] turned out to be 96%; in experiment [5], 42%.

As for `O=S(=O)(NCCCN1CCN(c2cccc3c2OCCO3)CC1)c1cccc(Br)c1` [Compound 413, 3-Bromo-N-[3-[4-(2,3-dihydro-1,4-benzodioxin-5-yl)piperazin-1-yl]propyl]benzenesulphonamide], the “α1 [%]” value in the experiment on adrenergic α1 receptor was determined as 90%. For the same compound, the inhibition at 1 µM in experiment [4] worked out at 88%; in experiment [5] it was 40%.

Regarding `O=c1[nH]c2cccc(N3CCN(CCCCNS(=O)(=O)c4ccc(F)cc4)CC3)c2[nH]1` [Compound 420, 4-Fluoro-N-[4-[4-(2-oxo-1,3-dihydrobenzimidazol-4-yl)piperazin-1-yl]butyl]benzenesulphonamide], the “α1 [%]” value in the experiment on adrenergic α1 receptor is reported as 82%. The inhibition at 1 µM on dopaminergic D3 receptor amounted to 97%.

Turning to `O=c1[nH]c2cccc(N3CCN(CCCCNS(=O)(=O)c4ccc(Cl)cc4)CC3)c2[nH]1` [Compound 421, 4-Chloro-N-[4-[4-(2-oxo-1,3-dihydrobenzimidazol-4-yl)piperazin-1-yl]butyl]benzenesulphonamide], in the experiment on adrenergic α1 receptor, the “α1 [%]” value was 88%. Further, on dopaminergic D3 receptor, the inhibition at 1 µM is 94%.

For `Cc1cccc(S(=O)(=O)NCCCCN2CCN(c3cccc4[nH]c(=O)[nH]c34)CC2)c1` [Compound 422, 3-Methyl-N-[4-[4-(2-oxo-1,3-dihydrobenzimidazol-4-yl)piperazin-1-yl]butyl]benzenesulphonamide], in the experiment on adrenergic α1 receptor, the “α1 [%]” value turned out to be 86%. Also, the inhibition at 1 µM on dopaminergic D3 receptor worked out at 98%.

For the compound `O=S(=O)(NCCCCN1CC=C(c2c[nH]c3ccc(F)cc23)CC1)c1cccc(O)c1` [Compound 434, N-[4-[4-(5-Fluoro-1H-indol-3-yl)-3,6-dihydro-2H-pyridin-1-yl]butyl]-3-hydroxybenzenesulphonamide], the inhibition at 1 µM at dopaminergic D3 receptor is 98%.

Take `O=S(=O)(NCCCN1CC=C(c2c[nH]c3ccc(F)cc23)CC1)c1cccc(F)c1` [Compound 436, 3-Fluoro-N-[3-[4-(5-fluoro-1H-indol-3-yl)-3,6-dihydro-2H-pyridin-1-yl]propyl]benzenesulphonamide]: the inhibition at 1 µM was found to be 96% on dopaminergic D3 receptor, 85% in experiment [4] and 56% in experiment [5].

The values are drawn from patent US8822517B2, “Arylosulfonamides for the treatment of CNS diseases” (Adamed SP. Z O.O., priority 2010, dated 2014).
